Experimental data: PubChem BioAssay (NCI)
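48-hour exposure; five concentrations; linearly interpolated endpoints. TGI: total growth inhibition.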

Key:
Assay in all cases: growth of human tumour cells (NCI), 48 h
[1] = tested on: 786-0 renal
[2] = tested on: A498 renal
[3] = tested on: A549 NSCLC
[4] = tested on: ACHN renal
[5] = tested on: BT-549 breast
[6] = tested on: CAKI-1 renal
[7] = tested on: CCRF-CEM leukemia
[8] = tested on: COLO 205 colon
[9] = tested on: DU-145 prostate
[10] = tested on: EKVX NSCLC
[11] = tested on: HCC-2998 colon
[12] = tested on: HCT-116 colon
[13] = tested on: HCT-15 colon
[14] = tested on: HL-60(TB) leukemia
[15] = tested on: HOP-62 NSCLC
[16] = tested on: HOP-92 NSCLC
[17] = tested on: HS 578T breast
[18] = tested on: HT29 colon
[19] = tested on: IGROV1 ovarian
[20] = tested on: K-562 leukemia
[21] = tested on: KM12 colon
[22] = tested on: LOX IMVI melanoma
[23] = tested on: M14 melanoma
[24] = tested on: MALME-3M melanoma
[25] = tested on: MCF7 breast
[26] = tested on: MDA-MB-231 breast
[27] = tested on: MDA-MB-435
[28] = tested on: MDA-N
[29] = tested on: MOLT-4 leukemia
[30] = tested on: NCI-H226 lung
[31] = tested on: NCI-H460 lung
[32] = tested on: NCI-H522 lung
[33] = tested on: NCI/ADR-RES ovarian
[34] = tested on: OVCAR-3 ovarian
[35] = tested on: OVCAR-4 ovarian
[36] = tested on: OVCAR-5 ovarian
[37] = tested on: OVCAR-8 ovarian
[38] = tested on: PC-3 prostate
[39] = tested on: RPMI-8226 leukemia
[40] = tested on: SF-295 CNS
[41] = tested on: SF-539 CNS
[42] = tested on: SK-MEL-2 melanoma
[43] = tested on: SK-MEL-28 melanoma
[44] = tested on: SK-MEL-5 melanoma
[45] = tested on: SK-OV-3 ovarian
[46] = tested on: SN12C renal
[47] = tested on: SNB-19 CNS
[48] = tested on: SNB-75 CNS
[49] = tested on: SR leukemia
[50] = tested on: SW-620 colon
[51] = tested on: T-47D breast
[52] = tested on: TK-10 renal
[53] = tested on: U251 CNS
[54] = tested on: UACC-257 melanoma
[55] = tested on: UACC-62 melanoma
[56] = tested on: UO-31 renal
[57] = tested on: RXF 393 renal
[58] = tested on: SF-268 CNS

Measured: TGI

CCCCCCCCCCCCCCCCOc1ccc(/C=C/C2=[N+](CCCl)CCO2)cc1
98.6 µM: [14]
92.5 µM: [49]
83.5 µM: [26]
> 100 µM: [1] | [2] | [3] | [4] | [5] | [6] | [7] | [8] | [9] | [10] | [11] | [12] | [13] | [15] | [16] | [17] | [18] | [19] | [20] | [21] | [22] | [23] | [24] | [25] | [27] | [28] | [29] | [30] | [31] | [32] | [33] | [34] | [35] | [36] | [37] | [38] | [39] | [40] | [41] | [42] | [43] | [44] | [45] | [46] | [47] | [48] | [50] | [51] | [52] | [53] | [54] | [55] | [56]

Nc1[nH]c(=S)c2c(N)n[nH]c2c1C(=O)Nc1ccc(Cl)cc1
> 100 µM: [1] | [2] | [3] | [5] | [6] | [8] | [9] | [10] | [11] | [12] | [13] | [14] | [16] | [17] | [18] | [19] | [20] | [21] | [23] | [24] | [25] | [26] | [27] | [28] | [29] | [30] | [31] | [32] | [33] | [34] | [35] | [36] | [37] | [38] | [39] | [57] | [58] | [41] | [42] | [43] | [44] | [45] | [46] | [47] | [48] | [49] | [50] | [51] | [52] | [53] | [54] | [55] | [56]
40.1 µM: [22]
